From ChEMBL document CHEMBL4020750 (Bioorg Med Chem Lett, 2017) come the findings set out here.

The nature of data set [1]: Inhibition of Trypanosoma brucei methionyl tRNA synthetase using L-methionine as substrate preincubated for 15 mins followed by substrate addition measured after 120 mins in presence of ATP by Kinase Glo chemiluminescence assay.
For another data set, the system named is Trypanosoma brucei. The data set can be described thus: Antitrypanosomal activity against Trypanosoma brucei 427 bloodstream forms after 48 hrs by alamar blue assay. To be noted: Trypanosoma brucei, 427, 48 h; for pEC50: read-out: EC50; for EC50: read-out: pEC50 (converted). It counts as functional. For orientation: The colour change of resazurin is a common sign of viable cells or microbes.

A short description of data set [2]: Cytotoxicity against human CRL8155 cells after 48 hrs by alamar blue assay. Format: cell-based. To be noted: crl8155, 48 h.
Data set [3] in a line: AUC in mouse at 50 mg/kg, administered through oral gavage by LC-MS analysis. It counts as ADME, organism-based. To be noted: in vivo.
For the next data set, the system named is HepG2. The data set can be described thus: Cytotoxicity against human HepG2 cells after 48 hrs by alamar blue assay. It counts as cell-based. The conditions noted are these: hepg2, 48 h.
Data set [4] is described as follows: Cmax in mouse at 50 mg/kg, administered through oral gavage by LC-MS analysis. It counts as ADME, organism-based. The arrangement: dose 50 mg/kg, route oral. To be noted: in vivo.

pEC50, pIC50: −log10 of the molar value.

As a reminder, the pIC50 is the IC50 on a negative log10 scale, so that one unit is a factor of ten. In general, pEC50 refers to the negative decadic logarithm of the EC50, by convention in mol/L. As to `COc1c(Br)cc(Br)cc1CN[C@H]1CCCN(c2nc3nc(Cl)ccc3[nH]2)C1`, in data set [1], the pIC50 is greater than 7.30. In addition, in the data set on Trypanosoma brucei, the pEC50 was 6.48.

`Clc1cc(Cl)c(Cl)c(CN[C@H]2CCCN(c3nc4nc(Cl)ccc4[nH]3)C2)c1`: the pIC50 in data set [1] is greater than 7.30. Further, the pEC50 in the data set with Trypanosoma brucei was 6.45.

By CC50 is commonly meant the concentration at which the toxic effect on the cells reaches its halfway point. A higher CC50 goes with better tolerance by the cells. What is called AUC is the area under the concentration-time curve, a measure of exposure. A lower AUC goes with less exposure. The term Cmax denotes the peak of the concentration-time curve. With `Clc1cc(Cl)c2c(c1)C(N[C@H]1CCCN(c3nc4nc(Cl)ccc4[nH]3)C1)CCN2` (some centres not stated), the pIC50 in data set [1] was 7.05. The molecule also showed a CC50 in data set [2] of 19000 nM. Besides, in the data set on Trypanosoma brucei, the pEC50 was 7.24 and the EC50 is 50.1 nM. Also, the AUC in data set [3] was 15.8 µM·h. In the data set with HepG2, the CC50 turned out to be 40200 nM. In data set [4], this molecule yielded a Cmax of 14.7 µM.

Take `COC(=O)C(NCCN(C)c1nc2nc(Cl)ccc2[nH]1)c1cc(Cl)cc(Cl)c1` (configuration not stated): the pIC50 in data set [1] was 7.07. Also, in the data set on Trypanosoma brucei, the pEC50 is 5.28.

For the molecule `C=CCOc1c(Cl)cc(Cl)cc1CN[C@H]1CCCN(c2nc3nc(Cl)ccc3[nH]2)C1`, in data set [1], the pIC50 was greater than 7.30. In addition, the pEC50 in the data set with Trypanosoma brucei was 6.49.

Regarding `CCNc1c(Cl)cc(Cl)cc1CN[C@H]1CCCN(c2nc3nc(Cl)ccc3[nH]2)C1`, the pIC50 in data set [1] was greater than 7.30. The pEC50 with Trypanosoma brucei is 6.44.

On to `N#Cc1cc(Cl)cc(CN[C@H]2CCCN(c3nc4nc(Cl)ccc4[nH]3)C2)c1`, for which the pIC50 in data set [1] is greater than 7.30. Further, the negative logarithm of the EC50 (pEC50) in the data set with Trypanosoma brucei was 6.95.

Take `CC(C)Oc1c(Cl)cc(Cl)cc1CN[C@H]1CCCN(c2nc3nc(Cl)ccc3[nH]2)C1`: in data set [1], the pIC50 is 6.52. In the data set with Trypanosoma brucei, the pEC50 is 5.77.

Consider `COc1c(Cl)cc(Cl)cc1CN[C@H]1CCCN(c2nc3nc(Cl)ccc3[nH]2)C1`, for which the pIC50 in data set [1] is greater than 7.30. The pEC50 with Trypanosoma brucei was 6.45.

As for `CN(CCNC(CO)c1cc(Cl)cc(Cl)c1)c1nc2nc(Cl)ccc2[nH]1` (configuration not stated), in data set [1], the pIC50 was 7.00. Moreover, in the data set with Trypanosoma brucei, the pEC50 is 6.00.

In the case of `Clc1cc(Cl)c(OCC2CC2)c(CN[C@H]2CCCN(c3nc4nc(Cl)ccc4[nH]3)C2)c1`, the pIC50 in data set [1] is greater than 7.30. The pEC50 in the data set on Trypanosoma brucei is 6.29.

Take `CN(CCN[C@@H]1CCNc2c(Cl)cc(Cl)cc21)c1nc2nc(Cl)ccc2[nH]1`: the pIC50 in data set [1] is greater than 7.30. Moreover, the CC50 in data set [2] stood at 18500 nM; in the data set on HepG2, 30600 nM. In addition, the pEC50 with Trypanosoma brucei is 8.40. In the data set on Trypanosoma brucei, the EC50 was 3.98 nM. This molecule also gave an AUC in data set [3] of 2.33 µM·h. For the same molecule, the concentration in data set [4] peaked (Cmax) at 1.3 µM.

As for `CCOc1c(Cl)cc(Cl)cc1CNCCN(C)c1nc2nc(Cl)ccc2[nH]1`, the pIC50 in data set [1] is greater than 7.30. For the same molecule, the pEC50 with Trypanosoma brucei was 6.50.

`CCOc1c(Br)cc(Br)cc1CN[C@H]1CCCN(c2nc3nc(Cl)ccc3[nH]2)C1`: the pIC50 in data set [1] was greater than 7.30. Further, the CC50 in data set [2] was 10500 nM. In addition, in the data set with Trypanosoma brucei, the pEC50 was 7.40 and the EC50 is 39.8 nM. The molecule further had an AUC in data set [3] of 3.03 µM·h. The midpoint of cytotoxicity in the data set with HepG2, the CC50, lay at 18700 nM. The highest level in data set [4] (Cmax) was 2.1 µM.

In the case of `Clc1cc(Br)cc(CN[C@H]2CCCN(c3nc4nc(Cl)ccc4[nH]3)C2)c1`, the pIC50 in data set [1] was greater than 7.30. In data set [2], this molecule gave a CC50 of 43000 nM. In the data set with Trypanosoma brucei, the pEC50 is 7.15 and the EC50 is 63.1 nM. Also, in data set [3], the AUC is 78.1 µM·h. The molecule further showed a CC50 in the data set on HepG2 greater than 50000 nM. The molecule further registered a Cmax in data set [4] of 19.2 µM.

Consider `Clc1cc(Cl)c(OC2CC2)c(CN[C@H]2CCCN(c3nc4nc(Cl)ccc4[nH]3)C2)c1`, for which the pIC50 in data set [1] was 6.41. In addition, in the data set on Trypanosoma brucei, the pEC50 is 5.51.

Regarding `Clc1ccc2nc(N3CCC[C@H](NCc4cc(Br)cc(Br)c4)C3)[nH]c2n1`, in data set [1], the pIC50 is greater than 7.30. This molecule yielded a CC50 in data set [2] of 47600 nM. In addition, in the data set on Trypanosoma brucei, the pEC50 was 7.07 and the EC50 was 79.4 nM. Moreover, the CC50 with HepG2 turned out to be 39100 nM.

Consider `CN(CCNC(C(N)=O)c1cc(Cl)cc(Cl)c1)c1nc2nc(Cl)ccc2[nH]1` (configuration not stated), for which the pIC50 in data set [1] was 7.12. Also, the pEC50 in the data set on Trypanosoma brucei is 5.35.

As to `CCOc1c(Cl)cc(Cl)cc1CN[C@H]1CCCN(c2nc3nc(Cl)ccc3[nH]2)C1`, the pIC50 in data set [1] was greater than 7.30. Also, in the data set on Trypanosoma brucei, the negative-log EC50 (pEC50) was 6.95.

Regarding `CCOc1c(Br)cc(Cl)cc1CN[C@H]1CCCN(c2nc3nc(Cl)ccc3[nH]2)C1`, in data set [1], the pIC50 is greater than 7.30. Further, the negative-log EC50 (pEC50) in the data set with Trypanosoma brucei is 6.64.

With `CCCOc1c(Cl)cc(Cl)cc1CN[C@H]1CCCN(c2nc3nc(Cl)ccc3[nH]2)C1`, the pIC50 in data set [1] is greater than 7.30. Also, in the data set on Trypanosoma brucei, the pEC50 was 6.08.

Turning to `Oc1c(Cl)cc(Cl)cc1CN[C@H]1CCCN(c2nc3nc(Cl)ccc3[nH]2)C1`, the pIC50 in data set [1] was greater than 7.30. In addition, the pEC50 in the data set with Trypanosoma brucei was 6.62.
